Measurements published in patent US20100113465A1, “7-AZASPIRO[3.5]NONANE-7-CARBOXAMIDE COMPOUNDS” (Pfizer Inc., priority 2008, published 2010).

How the values were obtained:
rat FAAH = target: T1, rat FAAH (Rattus norvegicus, UniProt P97612); test: FAAH assay, rat FAAH enzyme inhibition (kinact/Ki); format: biochemical; details: oleamide substrate 50 μM, 30° C.; for kinact/KI: read-out: rFAAH kinact/Ki
T1 construct: made in house; host or cells: E. coli
T1 sequence (P97612 1-579): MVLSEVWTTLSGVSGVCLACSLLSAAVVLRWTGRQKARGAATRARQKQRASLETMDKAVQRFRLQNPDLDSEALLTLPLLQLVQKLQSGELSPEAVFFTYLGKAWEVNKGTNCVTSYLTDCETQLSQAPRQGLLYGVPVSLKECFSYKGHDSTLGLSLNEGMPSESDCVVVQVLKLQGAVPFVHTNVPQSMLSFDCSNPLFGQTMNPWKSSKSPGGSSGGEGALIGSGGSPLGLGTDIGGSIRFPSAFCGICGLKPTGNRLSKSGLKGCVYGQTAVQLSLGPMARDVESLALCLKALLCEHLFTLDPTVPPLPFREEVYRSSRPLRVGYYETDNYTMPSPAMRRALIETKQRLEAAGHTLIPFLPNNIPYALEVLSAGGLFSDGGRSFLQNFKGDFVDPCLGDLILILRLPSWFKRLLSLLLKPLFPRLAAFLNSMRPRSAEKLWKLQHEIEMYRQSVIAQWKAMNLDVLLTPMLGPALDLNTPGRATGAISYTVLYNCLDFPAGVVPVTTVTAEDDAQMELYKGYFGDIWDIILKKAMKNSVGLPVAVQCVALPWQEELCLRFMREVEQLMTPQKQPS
Protocol: (§1) The FAAH assay was carried out in 384-well clear polystyrene plates (Evergreen Scientific) in a total volume of 50 μl per well in a manner similar to that described by Mileni et al., Proc. Nat. Acad. Sci. 2008, 105, 12820-12824. All percents are by volume. Serial dilutions of compound were initially prepared in 100% DMSO, and then diluted two-fold into HPLC-grade H2O to give 50% DMSO. To each well, was placed the reaction mixture (40 μl) containing 1-4 nM FAAH, 50 mM NaPi, pH 7.4, 3 mM α-ketoglutarate, 0.15 mM NADH, 7.5 U/ml glutamate dehydrogenase, 2 mM ADP, 1 mM EDTA, and 0.1% Triton X-100 (The concentration shown for each component is the final concentration in the assay). To this mixture, was added 5 μl of a compound of Examples 1 to 56 at various concentrations in 50% DMSO (or 5 μl 50% DMSO for controls). This was immediately followed by the addition of 5 μl oleamide (500 μM) dissolved in 75% EtOH/25% DMSO and the reaction mixture was mixed for 1.5 min. The final concentrations of DMSO and EtOH in the assay were each 7.5%. The reactions were incubated at 30° C. and the absorbance at 340 nm was collected over a period of 90 min with readings taken in 30-second intervals using SpectraMax Plus^384 Microplate Spectrophotometer (Molecular Devices, Sunnyvale, Calif.). The human FAAH and rat FAAH used in the assay was prepared as described in the patent application WO 2006/067613 using wild-type E. coli cells transformed in St. Louis, Mo., U.S.A. The purity of the enzyme was greater than 98% based on an analysis by SDS-polyacrylamide gel electrophoresis followed by Coomassie Blue staining.
(§2) Reaction progress curves were corrected for the non-enzymatic oxidation of NADH by subtraction of absorbancies at each time point obtained from control reactions containing no FAAH enzyme. The loss of enzyme activity as a function of time is well-described by the following mathematical equation (1) for a mono-exponential decay: […]
(§3) where At represents the absorbance at time t, A0 represents the absorbance at time zero, and C represents a constant. Observed rates of enzyme inactivation (kobs) were determined from the non-linear reaction progress curves by fitting the corrected absorbancies to an equation for a mono-exponential decay using the third-party Microsoft Excel plug-in, XLfit (IDBS Limited). Secondary plots of kobs vs. inhibitor concentration were prepared from kobs values obtained from progress curves. Second-order rates for enzyme inactivation, expressed as kinact/Ki (M^−1s^−1), were calculated from the slopes from linear regression analysis of the secondary plot of kobs vs. inhibitor concentration as defined in following equation (2), where [I]<<Ki:
(§4) The concentration of substrate in the assay was equal to the Km for oleamide of 50 μM. Therefore, reported kinact/Ki values are obtained by multiplying resulting slopes by a factor of two (i.e. slope=kinact/(Ki*2)).

human FAAH = target: T2, human FAAH (Homo sapiens, UniProt O00519); test: FAAH assay, human FAAH enzyme inhibition (kinact/Ki); format: biochemical; details: oleamide substrate 50 μM, 30° C.; for kinact/KI: read-out: hFAAH kinact/Ki
T2 construct: made in house; host or cells: E. coli
T2 sequence (O00519 1-579): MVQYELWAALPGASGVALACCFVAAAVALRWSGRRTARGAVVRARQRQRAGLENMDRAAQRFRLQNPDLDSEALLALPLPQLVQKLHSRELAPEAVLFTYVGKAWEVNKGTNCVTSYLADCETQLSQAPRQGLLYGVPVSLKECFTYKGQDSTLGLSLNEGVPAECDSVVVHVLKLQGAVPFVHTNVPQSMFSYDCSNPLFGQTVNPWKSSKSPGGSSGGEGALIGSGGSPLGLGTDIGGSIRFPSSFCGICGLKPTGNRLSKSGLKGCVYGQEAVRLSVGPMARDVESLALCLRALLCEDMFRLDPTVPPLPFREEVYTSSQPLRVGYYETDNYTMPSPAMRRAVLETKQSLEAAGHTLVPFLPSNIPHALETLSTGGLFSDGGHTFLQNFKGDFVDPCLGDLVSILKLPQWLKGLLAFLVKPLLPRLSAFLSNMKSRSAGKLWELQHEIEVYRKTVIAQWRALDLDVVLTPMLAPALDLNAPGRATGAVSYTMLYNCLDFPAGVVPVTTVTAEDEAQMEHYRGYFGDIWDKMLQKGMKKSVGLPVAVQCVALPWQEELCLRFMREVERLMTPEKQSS
Protocol: as §1, §2, §3, §4

Structure (SMILES) | kinact/KI (rat FAAH) [M⁻¹ s⁻¹] | kinact/KI (human FAAH) [M⁻¹ s⁻¹] | rFAAH kinact/Ki (rat FAAH) [M⁻¹ s⁻¹] | hFAAH kinact/Ki (human FAAH) [M⁻¹ s⁻¹]
Cn1nnnc1NC(=O)N1CCC2(CC1)CC(c1cccc(F)c1F)C2 [Example 56, 2-(2,3-difluorophenyl)-N-(1-methyl-1H-tetrazol-5-yl)-7-azaspiro[3.5]nonane-7-carboxamide] | 1940 | 10300 |  | 
COC1(c2ccc(F)c(Cl)c2)CC2(CCN(C(=O)Nc3onc(C)c3C)CC2)C1 [Example 43, 2-(3-chloro-4-fluorophenyl)-N-(3,4-dimethylisoxazol-5-yl)-2-methoxy-7-azaspiro[3.5]nonane-7-carboxamide] | 247 | 494 |  | 
Cc1cccc(C2CC3(CCN(C(=O)Nc4nnc(-c5ccccc5)nn4)CC3)C2)c1 [Example 17, 2-(3-methylphenyl)-N-(6-phenyl-1,2,4,5-tetrazin-3-yl)-7-azaspiro[3.5]nonane-7-carboxamide] | 3940 | 2460 |  | 
Cc1noc(NC(=O)N2CCC3(CC2)CC(c2nc(-c4ccc(OC(F)(F)F)cc4)cs2)C3)c1C [Example 38, N-(3,4-dimethylisoxazol-5-yl)-2-{4-[4-(trifluoromethoxy)phenyl]-1,3-thiazol-2-yl}-7-azaspiro[3.5]nonane-7-carboxamide] | 756 | 3720 |  | 
Cc1noc(NC(=O)N2CCC3(CC(c4ccc(F)c(Cl)c4)C3)C(C)C2)c1C (stereo not shown) [Example 42, 2-(3-chloro-4-fluorophenyl)-N-(3,4-dimethylisoxazol-5-yl)-5-methyl-7-azaspiro[3.5]nonane-7-carboxamide] | 1360 | 991 |  | 
Cc1noc(NC(=O)N2CCC3(CC2)CC(c2csc(-c4cccc(F)c4)n2)C3)c1C [Example 37, N-(3,4-dimethylisoxazol-5-yl)-2-[2-(3-fluorophenyl)-1,3-thiazol-4-yl]-7-azaspiro[3.5]nonane-7-carboxamide] | 1980 | 1900 |  | 
Cc1noc(NC(=O)N2CCC3(CC2)CC(c2ccc(F)c(Cl)c2)C3C)c1C (stereo not shown) [Example 41, 2-(3-chloro-4-fluorophenyl)-N-(3,4-dimethylisoxazol-5-yl)-1-methyl-7-azaspiro[3.5]nonane-7-carboxamide] | 405 | 354 |  | 
Cc1noc(NC(=O)N2CCC3(CC2)CC(c2cccc(-c4cccc(F)c4)c2)C3)c1C [Example 31, N-(3,4-dimethylisoxazol-5-yl)-2-(3′-fluorobiphenyl-3-yl)-7-azaspiro[3.5]nonane-7-carboxamide] | 656 | 1100 |  | 
Cn1nnnc1NC(=O)N1CCC2(CC1)CC(c1cccc3c1OC(F)(F)O3)C2 [Example 55, 2-(2,2-difluoro-1,3-benzodioxol-4-yl)-N-(1-methyl-1H-tetrazol-5-yl)-7-azaspiro[3.5]nonane-7-carboxamide] | 2040 | 10200 |  | 
Cc1nnc(NC(=O)N2CCC3(CC2)CC(c2cccc(OC(F)(F)F)c2)C3)o1 [Example 35, N-(5-methyl-1,3,4-oxadiazol-2-yl)-2-[3-(trifluoromethoxy)phenyl]-7-azaspiro[3.5]nonane-7-carboxamide] | 2460 | 1530 |  | 
Cc1cccc(C2CC3(CCN(C(=O)Nc4nnnn4C)CC3)C2)c1 [Example 16, 2-(3-methylphenyl)-N-(1-methyl-1H-tetrazol-5-yl)-7-azaspiro[3.5]nonane-7-carboxamide] | 3200 | 9660 |  | 
O=C(Nc1nnc(-c2cccc(Cl)c2)o1)N1CCC2(CC1)CC(c1cccc(OC(F)(F)F)c1)C2 [Example 51, N-[5-(3-chlorophenyl)-1,3,4-oxadiazol-2-yl]-2-[3-(trifluoromethoxy)phenyl]-7-azaspiro[3.5]nonane-7-carboxamide] | 5460 | 2520 |  | 
Cc1noc(NC(=O)N2CCC3(CC(c4ccc(F)c(Cl)c4)C3)C(C)C2)c1C (single isomer, unassigned) [Example 42c, 2-(3-chloro-4-fluorophenyl)-N-(3,4-dimethylisoxazol-5-yl)-5-methyl-7-azaspiro[3.5]nonane-7-carboxamide] |  |  | 3530 | 2760
Cc1noc(NC(=O)N2CCC3(CC(c4ccc(F)c(Cl)c4)C3)C(C)C2)c1C (single isomer, unassigned) [Example 42b, 2-(3-chloro-4-fluorophenyl)-N-(3,4-dimethylisoxazol-5-yl)-5-methyl-7-azaspiro[3.5]nonane-7-carboxamide] |  |  | 49.4 | 37.1
Cc1noc(NC(=O)N2CCC3(CC2)CC(O)(c2ccc(F)c(Cl)c2)C3)c1C [Example 44, 2-(3-chloro-4-fluorophenyl)-N-(3,4-dimethylisoxazol-5-yl)-2-hydroxy-7-azaspiro[3.5]nonane-7-carboxamide] | 1340 | 945 |  | 
Cc1noc(NC(=O)N2CCC3(CC2)CC(c2cccc(Oc4ccc(Br)cn4)c2)C3)c1C [Example 11, 2-{3-[(5-bromopyridin-2-yl)oxy]phenyl}-N-(3,4-dimethylisoxazol-5-yl)-7-azaspiro[3.5]nonane-7-carboxamide] | 9990 | 2340 |  | 
Cc1noc(NC(=O)N2CCC3(CC(c4ccc(F)c(Cl)c4)C3)C(C)C2)c1C (single isomer, unassigned) [Example 42a, 2-(3-chloro-4-fluorophenyl)-N-(3,4-dimethylisoxazol-5-yl)-5-methyl-7-azaspiro[3.5]nonane-7-carboxamide] |  |  | 3040 | 1550
Cc1noc(NC(=O)N2CCC3(CC2)CC(c2ccc(OCc4ccc(F)cc4)cc2)C3)c1C [Example 40, N-(3,4-dimethylisoxazol-5-yl)-2-{4-[(4-fluorobenzyl)oxy]phenyl}-7-azaspiro[3.5]nonane-7-carboxamide] | 1540 | 3050 |  | 
CCn1nnnc1NC(=O)N1CCC2(CC1)CC(c1cccc(OC(F)(F)F)c1)C2 [Example 52, N-(1-ethyl-1H-tetrazol-5-yl)-2-[3-(trifluoromethoxy)phenyl]-7-azaspiro[3.5]nonane-7-carboxamide] | 3420 | 6940 |  | 
Cc1noc(NC(=O)N2CCC3(CC2)CC(c2ccc(Cl)c(F)c2)C3)c1C [Example 39, 2-(4-chloro-3-fluorophenyl)-N-(3,4-dimethylisoxazol-5-yl)-7-azaspiro[3.5]nonane-7-carboxamide] | 4120 | 2670 |  | 
